System: subgenomic HCV replicon in Huh-7 cells
Assay: HCV replicon assay
Assay type: cell-based
Settings: Huh-7 cells with subgenomic HCV replicon, luciferase (LUC) reporter, 72 hours, 1% DMSO; read-out: EC50 (50% inhibitory concentration) in HCV replicon cells
Experimental: Huh-7 cells containing the self-replicating, subgenomic HCV replicon with a stable luciferase (LUC) reporter were cultured in Dulbecco's modified Eagle's medium (DMEM) containing 2 mM L-glutamine and supplemented with 10% heat-inactivated fetal bovine serum (FBS), 1% penicillin-streptomyocin, 1% nonessential amino acids, and 0.5 mg/mL G418.
Determination of 50% inhibitory concentration (EC50) of compounds in HCV replicon cells were performed by the following procedure. On the first day, 5,000 HCV replicon cells were plated per well in a 96-well plate. On the following day, test compounds were solubilized in 100% DMSO to 100× the desired final testing concentration. Each compound was then serially diluted (1:3) up to 9 different concentrations. Compounds in 100% DMSO are reduced to 10% DMSO by diluting 1:10 in cell culture media. The compounds were diluted to 10% DMSO with cell culture media, which were used to dose the HCV replicon cells in 96-well format. The final DMSO concentration was 1%. The HCV replicon cells were incubated at 37° C. for 72 hours. At 72 hours, cells were processed when the cells are still subconfluent. Compounds that reduce the LUC signal are determined by Bright-Glo Luciferase Assay (Promega, Madison, Wis.). Percent Inhibition was determined for each compound concentration in relation to the control cells (untreated HCV replicon) to calculate the EC50.

## CC(C)OC(=O)[C@H](C)NP(=S)(OC[C@H]1O[C@@H](n2ccc(=O)[nH]c2=O)[C@](C)(O)[C@@H]1O)Oc1ccccc1 (stereo partly drawn) [Compound 1, 2′-C-methyluridine-5′-(O-phenyl-N—(S)-1-(isopropoxycarbonyl)ethyl)thiophosphoramidate]
  EC50: < 1 µM
